Assay: xn = mol fraction of the nth substance listed
Settings: Liquid, Vibrating tube method

CCCCCCCC [octane] + CCCO
Settings | mass density [kg/m3]
323.15 K, 10010 kPa, x2 = 0.3158 | 702.83
323.15 K, 10010 kPa, x2 = 0.4411 | 711.7
323.15 K, 10010 kPa, x2 = 0.8823 | 763.66
323.15 K, 11000 kPa, x2 = 0.1631 | 695.13
323.15 K, 11010 kPa, x2 = 0.2111 | 697.62
323.15 K, 11010 kPa, x2 = 0.3158 | 703.75
323.15 K, 11010 kPa, x2 = 0.4411 | 712.61
323.15 K, 11010 kPa, x2 = 0.7301 | 741.5
323.15 K, 11010 kPa, x2 = 0.8823 | 764.53
323.15 K, 12000 kPa, x2 = 0.3158 | 704.66
323.15 K, 12010 kPa, x2 = 0.7301 | 742.41
323.15 K, 12010 kPa, x2 = 0.8823 | 765.37
323.15 K, 12020 kPa, x2 = 0.1631 | 696.03
323.15 K, 12020 kPa, x2 = 0.2111 | 698.52
323.15 K, 12020 kPa, x2 = 0.4411 | 713.53
323.15 K, 13000 kPa, x2 = 0.8823 | 766.25
323.15 K, 13010 kPa, x2 = 0.2111 | 699.43
323.15 K, 13010 kPa, x2 = 0.4411 | 714.42
323.15 K, 13010 kPa, x2 = 0.7301 | 743.29
323.15 K, 13020 kPa, x2 = 0.1631 | 696.94
323.15 K, 13020 kPa, x2 = 0.3158 | 705.56
323.15 K, 14010 kPa, x2 = 0.1631 | 697.82
323.15 K, 14010 kPa, x2 = 0.2111 | 700.32
323.15 K, 14010 kPa, x2 = 0.3158 | 706.45
323.15 K, 14010 kPa, x2 = 0.4411 | 715.31
323.15 K, 14010 kPa, x2 = 0.8823 | 767.11
323.15 K, 14020 kPa, x2 = 0.7301 | 744.18
323.15 K, 15000 kPa, x2 = 0.7301 | 745.04
323.15 K, 15000 kPa, x2 = 0.8823 | 767.94
323.15 K, 15010 kPa, x2 = 0.1631 | 698.72
323.15 K, 15010 kPa, x2 = 0.2111 | 701.21
323.15 K, 15020 kPa, x2 = 0.3158 | 707.35
323.15 K, 15020 kPa, x2 = 0.4411 | 716.17
323.15 K, 16000 kPa, x2 = 0.3158 | 708.22
323.15 K, 16000 kPa, x2 = 0.7301 | 745.87
323.15 K, 16010 kPa, x2 = 0.1631 | 699.58
323.15 K, 16010 kPa, x2 = 0.4411 | 717.04
323.15 K, 16010 kPa, x2 = 0.8823 | 768.77
323.15 K, 16020 kPa, x2 = 0.2111 | 702.08
323.15 K, 17000 kPa, x2 = 0.1631 | 700.41
323.15 K, 17010 kPa, x2 = 0.2111 | 702.95
323.15 K, 17010 kPa, x2 = 0.3158 | 709.05
323.15 K, 17010 kPa, x2 = 0.4411 | 717.88
323.15 K, 17020 kPa, x2 = 0.7301 | 746.73
323.15 K, 17020 kPa, x2 = 0.8823 | 769.6
323.15 K, 18000 kPa, x2 = 0.1631 | 701.27
323.15 K, 18000 kPa, x2 = 0.2111 | 703.77
323.15 K, 18010 kPa, x2 = 0.3158 | 709.93
323.15 K, 18010 kPa, x2 = 0.4411 | 718.73
323.15 K, 18010 kPa, x2 = 0.7301 | 747.56
323.15 K, 18010 kPa, x2 = 0.8823 | 770.4
323.15 K, 19010 kPa, x2 = 0.1631 | 702.08
323.15 K, 19010 kPa, x2 = 0.2111 | 704.61
323.15 K, 19010 kPa, x2 = 0.3158 | 710.75
323.15 K, 19010 kPa, x2 = 0.4411 | 719.58
323.15 K, 19010 kPa, x2 = 0.7301 | 748.4
323.15 K, 19020 kPa, x2 = 0.8823 | 771.2
323.15 K, 20010 kPa, x2 = 0.1631 | 702.9
323.15 K, 20010 kPa, x2 = 0.2111 | 705.43
323.15 K, 20010 kPa, x2 = 0.4411 | 720.41
323.15 K, 20010 kPa, x2 = 0.7301 | 749.2
323.15 K, 20010 kPa, x2 = 0.8823 | 772.02
323.15 K, 20020 kPa, x2 = 0.3158 | 711.56
333.15 K, 100 kPa, x2 = 0.1631 | 675.2
333.15 K, 100 kPa, x2 = 0.2111 | 677.49
333.15 K, 100 kPa, x2 = 0.3158 | 683.44
333.15 K, 100 kPa, x2 = 0.4411 | 692.56
333.15 K, 100 kPa, x2 = 0.7301 | 721.13
333.15 K, 100 kPa, x2 = 0.8823 | 744.98
333.15 K, 1000 kPa, x2 = 0.2111 | 678.54
333.15 K, 1000 kPa, x2 = 0.3158 | 684.58
333.15 K, 1010 kPa, x2 = 0.1631 | 676.35
333.15 K, 1010 kPa, x2 = 0.4411 | 694.32
333.15 K, 1010 kPa, x2 = 0.8823 | 745.82
333.15 K, 1020 kPa, x2 = 0.7301 | 722.21
333.15 K, 2010 kPa, x2 = 0.1631 | 677.44
333.15 K, 2010 kPa, x2 = 0.2111 | 679.63
333.15 K, 2010 kPa, x2 = 0.3158 | 685.64
333.15 K, 2010 kPa, x2 = 0.4411 | 695.36
333.15 K, 2010 kPa, x2 = 0.7301 | 723.26
333.15 K, 2010 kPa, x2 = 0.8823 | 746.82
333.15 K, 3000 kPa, x2 = 0.2111 | 680.7
333.15 K, 3000 kPa, x2 = 0.3158 | 686.7
333.15 K, 3010 kPa, x2 = 0.1631 | 678.49
333.15 K, 3010 kPa, x2 = 0.7301 | 724.3
333.15 K, 3020 kPa, x2 = 0.4411 | 696.43
333.15 K, 3020 kPa, x2 = 0.8823 | 747.84
333.15 K, 4000 kPa, x2 = 0.3158 | 687.78
333.15 K, 4000 kPa, x2 = 0.4411 | 697.47
333.15 K, 4000 kPa, x2 = 0.7301 | 725.32
333.15 K, 4010 kPa, x2 = 0.2111 | 681.76
333.15 K, 4010 kPa, x2 = 0.8823 | 748.84
333.15 K, 4020 kPa, x2 = 0.1631 | 679.56
333.15 K, 5000 kPa, x2 = 0.8823 | 749.83
